# Columns and labels:
# [1] = biological target: T1, ERp57 (Homo sapiens, UniProt P30101); assay: Insulin-based turbidometric assay of thiol isomerase inhibitory activity (ERp57); format: biochemical; conditions: specificity assay, insulin turbidity
# T1 construct: purchased AbCam (Cambridge Mass.)
# T1 sequence (P30101 25-505): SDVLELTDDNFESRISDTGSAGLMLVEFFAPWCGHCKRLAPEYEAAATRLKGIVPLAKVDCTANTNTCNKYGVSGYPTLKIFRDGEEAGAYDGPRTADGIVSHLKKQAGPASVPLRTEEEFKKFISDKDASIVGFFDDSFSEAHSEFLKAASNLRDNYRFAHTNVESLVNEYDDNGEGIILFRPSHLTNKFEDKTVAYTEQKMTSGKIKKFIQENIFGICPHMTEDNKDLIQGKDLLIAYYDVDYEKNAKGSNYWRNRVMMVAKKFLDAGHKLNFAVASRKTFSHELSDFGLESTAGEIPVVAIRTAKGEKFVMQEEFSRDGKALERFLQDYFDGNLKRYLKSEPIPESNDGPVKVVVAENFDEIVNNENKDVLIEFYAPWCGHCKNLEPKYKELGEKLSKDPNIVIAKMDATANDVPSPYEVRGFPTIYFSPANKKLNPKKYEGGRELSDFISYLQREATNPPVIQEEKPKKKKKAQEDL
# [2] = test system: human washed platelets; assay: Collagen stimulated platelet aggregation; format: cell-based; conditions: collagen 1 μg/mL, 3 minutes
# Experimental: Human Platelet Preparation: 50 mL of blood was drawn from drug free, consenting individuals, into a syringe containing 5 mL sodium citrate (4% w/v) and 7.5 mL warmed ACD (85 mM sodium citrate, 71 mM citric acid and 110 mM glucose). Blood was centrifuged at 102 g for 20 minutes to obtain platelet-rich plasma (PRP), which was then decanted and 104 prostacyclin (PGI2 125 μg/mL, solubilized in ethanol) added. Platelets were pelleted by centrifugation at 1413 g for 10 minutes, platelet poor plasma was discarded and the pellet resuspended in 25 mL Tyrode's-HEPES buffer (134 mM NaCl, 2.9 mM KCl, 0.34 mM Na2HPO4, 12 mM NaHCO3, 20 mM HEPES, 1 mM MgCl2 and 5 mM glucose pH 7.3), 3 mL of ACD and 10 μL PGI2 were added and then following centrifugation at 1413 g for 10 minutes, the platelet pellet was re-suspended to the appropriate cell density using Tyrode's buffer. Platelets were rested for 30 minutes at 30° C. to allow platelet responses to recover.
# Platelet Aggregation: 445 μL of washed platelets at (4×10^8 cells/mL) were incubated for 5 minutes with vehicle (0.1% (v/v) DMSO) or 54 zafirlukast or montelukast. 50 μL of collagen 1 μg/mL (final), was added and light transmission monitored for 3 minutes at 37° C. with constant stirring (1200 rpm) using an aggregometer (Chronolog, USA).
# Statistical analyses: All raw data was analyzed by 1-way ANOVA and where appropriate normalized to vehicle. GraphPad Prism was used to perform statistical analysis by ANOVA or students T test. The level of significance of p values is as follows, *p<0.05,**p<0.01, ***p<0.005. Data presented are mean+/−standard error of the mean.
# Zafirlukast inhibits platelet aggregation: Human washed platelets (4×10^8 cells/mL) were pre-treated with 0.1 μM-10 μM zafirlukast or vehicle. Platelets were stimulated with collagen 1 μg/mL and allowed to aggregate for 3 minutes. Aggregation traces representative of the response were obtained and dose responses compared.
specificity among thiol isomerases [1],Structure (SMILES),"platelet aggregation, normalized to vehicle ([2]; 10 μM)","inhibition at 2.5 µM ([2]; Homo sapiens, Platelet, 0.05 h, 2.5 μM)","inhibition at 3.75 µM ([2]; Homo sapiens, Platelet, 0.05 h, 3.75 μM)","inhibition at 5 µM ([2]; Homo sapiens, Platelet, 0.05 h, 5 μM)","inhibition at 10 µM ([2]; Homo sapiens, Platelet, 0.05 h, 10 μM)"
specific for ERp57,CC(C)(C=O)Cc1cc(C(C)(C)C)c(O)c(C(C)(C)C)c1 [CGP-13501],–,–,–,–,–
–,"CC(C)(O)c1ccccc1CC[C@@H](SCC1(CC(=O)O)CC1)c1cccc(/C=C/c2ccc3ccc(Cl)cc3n2)c1 [montelukast, [R-(E)]-1-[[[1-[3-[2-(7-chloro-2-quinolinyl)ethenyl]phenyl]-3-[2-(7-chloro-2-quinolinyl)ethenyl]phenyl]-3-[2-(1-hydroxy-1-methylethyl)phenyl]propyl]thio]methyl cyclopropane acetic acid]",3.99±0.800%,62.1%,83.6%,90.6%,96.1%
